Experimental data as given in ChEMBL document CHEMBL1131321, “Pharmacophoric requirements for cannabinoid side chains: multiple bond and C1'-substituted delta 8-tetrahydrocannabinols” (J Med Chem, 1998).

Assays:
Cannabinoid receptor 1 = Cannabinoid receptor 1 (Rattus norvegicus, UniProt P20272); assay: The compound was evaluated for its affinity towards cannabinoid receptor 1 (CB1) in rat brain; format: tissue-based
Cannabinoid receptor 2 = Cannabinoid receptor 2 (Mus musculus, UniProt P47936); assay: The compound was evaluated for its affinity towards cannabinoid receptor 2 (CB2) in mouse spleen; format: tissue-based
Chain of Cannabinoid receptor 2 (P47936 whole entry): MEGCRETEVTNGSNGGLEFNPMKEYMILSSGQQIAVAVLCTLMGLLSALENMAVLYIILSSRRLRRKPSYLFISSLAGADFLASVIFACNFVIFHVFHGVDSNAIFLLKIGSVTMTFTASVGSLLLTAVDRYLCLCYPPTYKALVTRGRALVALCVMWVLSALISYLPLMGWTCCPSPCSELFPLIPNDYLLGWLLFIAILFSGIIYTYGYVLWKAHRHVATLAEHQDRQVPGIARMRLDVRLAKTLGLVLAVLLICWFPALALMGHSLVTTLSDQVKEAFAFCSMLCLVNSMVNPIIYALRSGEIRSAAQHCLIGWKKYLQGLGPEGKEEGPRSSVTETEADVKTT

Chain of Cannabinoid receptor 1 (P20272 whole entry): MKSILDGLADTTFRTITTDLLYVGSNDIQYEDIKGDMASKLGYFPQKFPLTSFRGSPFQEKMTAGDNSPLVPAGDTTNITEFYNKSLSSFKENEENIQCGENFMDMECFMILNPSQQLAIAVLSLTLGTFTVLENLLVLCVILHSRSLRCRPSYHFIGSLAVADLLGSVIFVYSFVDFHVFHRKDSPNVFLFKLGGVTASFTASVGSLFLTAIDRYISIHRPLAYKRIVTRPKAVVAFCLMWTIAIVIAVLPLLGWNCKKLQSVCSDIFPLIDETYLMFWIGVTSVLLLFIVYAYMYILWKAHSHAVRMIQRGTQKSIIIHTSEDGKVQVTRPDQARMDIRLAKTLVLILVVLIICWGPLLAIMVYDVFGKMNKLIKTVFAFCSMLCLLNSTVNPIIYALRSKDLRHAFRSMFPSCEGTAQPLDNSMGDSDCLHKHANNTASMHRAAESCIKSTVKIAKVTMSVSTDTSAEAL

Compound	Ki (Cannabinoid receptor 1) [nM]	Ki (Cannabinoid receptor 2; read-out: Ki) [nM]	Ki (Cannabinoid receptor 2) [nM]
CCCCCCC(O)c1cc(O)c2c(c1)OC(C)(C)[C@@H]1CC=C(C)C[C@@H]21 (stereo partly specified)	86.4	65.6	
CCCCCCC1(c2cc(O)c3c(c2)OC(C)(C)[C@@H]2CC=C(C)C[C@@H]32)CC1	2.17	3.3	
CCCCCC#Cc1cc(O)c2c(c1)OC(C)(C)[C@@H]1CC=C(C)C[C@@H]21	0.65	3.1	
C=C(C)[C@@H]1CCC(C)=C[C@H]1c1c(O)cc(C2(CCCCCC)SCCS2)cc1O	136	50.4	
CCCCCCC(=O)c1cc(O)c2c(c1)OC(C)(C)[C@@H]1CC=C(C)C[C@@H]21	21.7	83.7	
CCCCCCC1(c2cc(O)c3c(c2)OC(C)(C)[C@@H]2CC=C(C)C[C@@H]32)SCCS1			0.52
